Test results from patent publication US20250222109A1, “STRUCTURED LIPID COMPOSITIONS” (Universität Bern, priority 2022, published 2025).
Counter-ions that a name gives are not always drawn.

Columns and labels:
[1] = SAXS phase identification of MLO-water mesophases (TIF-Gel); assay type: physicochemical
Method: SAXS measurements were used to determine the phase identity and symmetry of the produced LMPs. Measurements were performed on a Bruker AXS Micro, with a microfocused X-ray source, operating at voltage and filament current of 50 kV and 1000 μA, respectively. The Cu Kα radiation (λCu Kα=1.5418 Å) was collimated by a 2D Kratky collimator, and the data were collected by a 2D Pilatus 100K detector. The scattering vector Q=(4π/λ) sin θ, with 2θ being the scattering angle, was calibrated using silver behenate. Data were collected and azimuthally averaged using the Saxsgui software to yield 1D intensity vs. scattering vector Q, with a Q range from 0.001 to 0.5 Å^−1. For all measurements the samples were placed inside a stainless-steel cell between two thin replaceable mica sheets and sealed by an O-ring, with a sample volume of 10 μL and a thickness of ˜1 mm. Measurements were performed at 25° C., 30° C., 34° C., 36° C. and 38° C. Samples were equilibrated for 10 min before measurements whereas scattered intensity was collected over 30 min and over 60 min in case of lamellar phase. On the other hand, for the kinetic study, the sample was pre equilibrated at 25° C. and inserted in the sample holder kept at 38° C. and the scattered intensity collected over 5 min. To determine the structural parameters such as the size of the water channels, SAXS data information on the lattice were combined with the composition of the samples (R. Mezzenga, et al., Shear rheology of lyotropic liquid crystals: a case study, Langmuir 21, 3322-3333 (2005)).
MLO was used as the lipid component of the mesophases and mixed with weighed amounts of drugs (10% w/w) in sealed Pyrex tubes and alternatively centrifuging (10 min, 5000 g) several times at room temperature until a homogenous mixture was obtained. The mesophase was then equilibrated for 48 h at room temperature in the dark (see, FIGS. 1A and 1B).
Firstly, small angle X-ray scattering (SAXS) measurements were used to determine the optimal amount of water needed to obtain a lamellar phase which provides a transition to a cubic at 38° C. (FIGS. 2B and 2C). The X-ray beam directed at the gel results in a scattering pattern with a set of maxima, that correspond to sharp Bragg reflections characteristic of the long-range positional order. The sequence of Bragg reflections (and their ratio; listed in FIG. 2A) identifies the symmetry of the mesophase studied (See also FIGS. 1A and 1B).

[2] = system: dextran sulfate sodium (DSS)-induced acute colitis; test: Chemically induced colitis based on application of DSS; assay type: in vivo, mice
Source text: Female 6-8 week-old C57B/6J Mice (ex. Charles River Germany) were maintained under specific and opportunistic pathogen-free (SOPF) microbiota conditions at the animal facility of the University of Bern. Mice were ear marked, randomly assigned to different cages and treatment groups, and bedding mixed between all cages to avoid potential cage effects on microbiota. All methods used were approved by the Bernese animal welfare authority (permission no. BE 20/18). […] The next day, mouse drinking water was supplemented with 2% w/v dextran sodium sulfate (DSS; MP Biomedicals, 160110). Every other day, the different compounds were applied intra-rectally until the end of the experiment. During the experiment, the mice were constantly monitored and the weight and disease scores were recorded when appropriate. Disease score was determined by grading of 1-4 of the following criteria (with grade 4 corresponding to most unhealthy/abnormal): posture, mobility, fur appearance, weight, stool consistency, and stool colour (L. F. Mager, et al., The ESRP1-GPR137 axis contributes to intestinal pathogenesis, Elife 6 (2017), doi: 10.7554/eLife.28366.). […]
The gating strategy was adapted from the inventors previously published work (S. E. Liyanage, et al., Flow cytometric analysis of inflammatory and resident myeloid populations in mouse ocular inflammatory models, Exp. Eye Res. 151, 160-170 (2016)). […] Splenocytes were quantified using a CASY cell counter (Omni Life Sciences) and the following populations were quantified following single cell and live/dead selection (Thermofischer, L34961). […] Stained cells were analysed on a BD Bioscience LSR II SORP flow cytometer.
DSS is toxic to epithelial cells and its application compromises the integrity of the intestinal barrier, thereby leading to activation of submucosal immune cells by intestinal microbes. Through experimentation, it was determined that bi-daily application of the gel yielded robust mitigation of local and systemic inflammation.

[3] = Drug encapsulation and distribution in TIF-Gel (WAXS, HPLC of gel layers); assay type: physicochemical
Method: The tube was centrifuged and kept at rest for 24 hours. Subsequently, the gel was divided into 3 different layers (Top, Middle, and Bottom), and the drug content evaluated in each by HPLC.
WAXS measurements were performed on a Bruker AXS Micro, with a microfocused X-ray source, operating at voltage and filament current of 50 kV and 1000 μA, respectively. The Cu Kα radiation (λCu Kα=1.5418 Å) was collimated by a 2D Kratky collimator, and the data were collected by a 2D Pilatus 100K detector. The scattering vector Q=(4π/λ) sin θ, with 2θ being the scattering angle, was calibrated using silver behenate. Data were collected and azimuthally averaged using the Saxsgui software to yield 1D intensity vs. scattering vector Q, with a Q range from 13 to 18 nm-1. For all measurements the samples were placed inside a stainless-steel cell between two thin replaceable mica sheets and sealed by an O-ring, with a sample volume of 10 μL and a thickness of ˜1 mm.
The TAC loaded mesophase composition comprised: a) a carrier comprising: a1) water in an amount of 16% by weight of the carrier; and a2) MLO in an amount of 84% by weight of the carrier; and b) TAC in an amount of 1% by weight of the composition.

[4] = SAXS phase identification of MLO-water mesophases (TIF-Gel); assay type: physicochemical; settings: 5 mg of TOFA and 1 mg of TAC in 100 mg of gel
[5] = Stability study of TAC and TOFA-loaded TIF-Gel (HPLC); assay type: physicochemical; settings: 4° C. and 25° C., one-month period
Method: The TAC and TOFA-loaded TIF-Gels were prepared according to Example 1. […] The TAC-loaded TIF-Gel composition comprised a) a carrier comprising: a1) water in an amount of 16% by weight of the carrier; and a2) MLO in an amount of 84% by weight of the carrier; and b) TAC in an amount of 1% by weight of the composition. […] At specific time points, an aliquot of the formulation was analysed at the HPLC, and the content of the drug was recorded. Data are expressed as relative percentage referred to day 0.

[6] = In vitro release of TOFA and TAC from TIF-Gel, vertical diffusion cells; assay type: physicochemical; settings: HEPES pH 7.4, 37° C., 8 h
Source text: In the in vitro release experiments, drug-loaded TIF-Gel formulations were placed in the donor chamber of a vertical diffusion cell (as depicted in FIG. 3G) and kept separated from the acceptor chamber by a polycarbonate membrane with pore diameter of 3 μm, which allows the passage of the free drugs only.

[7] = rectal, every other day, vs empty TIF-Gel

SMILES | phase identity (SAXS) ([1]; 12% of water, 25° C. and 38° C.) | phase identity (SAXS) ([1]; 14% of water, 25° C.) | phase identity (SAXS) ([1]; 14% of water, 38° C.) | phase identity (SAXS) ([1]; 16% w/w of water and 84% w/w of MLO, 25° C.) | phase identity (SAXS) ([1]; 16% w/w of water and 84% w/w of MLO, 38° C.) | temperature of the L→Q transition ([1]; 18% w/w of water) | phase transition in the presence of lipase ([1]; lipase 1000 U/mL) | time of conversion of precursor L phase into the cubic phase ([1]; once applied into the rectum) | local pro-inflammatory cytokine levels ([2]; colon tissue) | disease score / disease severity [2, 7] | weight loss [2, 7] | effect of drug on phase identity and transition temperature of the gel ([1]; 10% w/w of drug, lamellar at room temperature, cubic (Ia3d) at 38° C.) | distribution of drug in the gel matrix ([3]; Top, Middle and Bottom gel layers, HPLC) | drug crystallisation in the gel (WAXS) ([3]; embedded in the 3D gel structure) | encapsulation efficacy ([3]; encapsulated in the TIF-Gel) | effect of drug entrapment on phase identity and thermal behaviour of the carrier gel [4] | long-term stability of drug loaded into TIF-gel (drug content by HPLC) [5] | drug release from the gel vs free drug, in vitro [6]
CCCCC/C=C\C/C=C\CCCCCCCC(=O)OCC(O)CO (stereo not drawn) [MLO, 2,3-dihydroxypropyl(9Z,12Z)-9,12-octadecadienoate] | L phase | lamellar structure | coexistence of L and Q structure (with a Ia3d geometry) | lamellar structure | Q structure (with a Ia3d geometry) | 30 °C | Q→Hexagonal phase (H) | < 5 min | – | – | – | – | – | – | – | – | – | –
C[C@@H]1CCN(C(=O)CC#N)C[C@@H]1N(C)c1ncnc2[nH]ccc12 [TOFA, Tofacitinib citrate] | – | – | – | – | – | – | – | – | reduced | did not improve the disease score | improving weight loss | did not affect the phase identity and the transition temperature | homogeneously distributed | do not form crystals | 100% | did not affect the phase identity and thermal behaviour | stable | decreased the release rate
